We go through one molecule from PMC7561186, “Rational design of balanced dual-targeting antibiotics with limited resistance” (PLoS Biology, 2020).

SMILES strings stand for the structures.

For this experiment, the system named is S. aureus. The experiment can be described thus: pH-dependent MIC determination. The format is cell-based. The note with it: Staphylococcus aureus. As for the experimental part:
MICs were determined using a standard serial broth microdilution technique according to the CLSI guidelines. Briefly, bacterial strains were inoculated onto MHBII agar plates and were grown overnight at 37 °C. Next, 3 individual colonies from each strain were inoculated into 1 mL MHBII medium and propagated at 37 °C, 250 rpm overnight. In the cases of Enterococcus and Streptococcus sp., cells were plated to BHI agar plates, and BHI broth was used to determine MICs. […] Following dilutions, each well was seeded with 5×10^4 bacterial cells. All measurements were performed in 3 parallel replicates and to avoid possible edge effects in microwell plates, side rows (A and H) were filled with sterile medium. Following inoculations, plates were covered with lids and wrapped in polyethylene plastic bags to minimize evaporation but allow for O2 transfer. Plates were incubated at 37 °C under continuous shaking at 150 rpm for 18 hours. After incubation, OD600 of each well was measured using a BioTek Synergy 2 microplate reader.

On to `Nc1nc(-n2cc(C(=O)O)c(=O)c3cc(F)c(N4CC(O)C4)c(Cl)c32)c(F)cc1F` [Delafloxacin], for which the MIC came out at 0.0005 µg/mL (S. aureus ATCC 43300 (MRSA), pH 5.5); 0.004 µg/mL (S. aureus ATCC 43300 (MRSA), pH 7.3); 0.032 µg/mL (S. aureus ATCC 700699 (VISA), pH 5.5); 1 µg/mL (S. aureus ATCC 700699 (VISA), pH 7.3).

A word on the MIC: it is the smallest concentration in the dilution series that meets the test's criterion for growth inhibition.
